Assay [1] has as its system Plasmodium falciparum. Kind of assay: Resistance index, ratio of EC50 for chloroquine, mefloquine and pyrimethamine-resistant Plasmodium falciparum TM91C235 to EC50 for chloroquine-sensitive Plasmodium falciparum D6. The class given is functional.
Assay [2] concerns Plasmodium falciparum. Description: Antimalarial activity against chloroquine, mefloquine and pyrimethamine-resistant Plasmodium falciparum TM91C235 by SYBR green I staining-based fluorescence assay. The assay is classed as functional, organism-based.
Assay [3] deals with Plasmepsin II (Plasmodium falciparum, UniProt P46925). Description: Inhibition of Plasmodium falciparum plasmepsin 2.
For assay [4], the system named is Plasmodium falciparum. Description: Antimalarial activity against chloroquine-sensitive Plasmodium falciparum D6 by SYBR green I staining-based fluorescence assay. The class given is functional, organism-based.
Assay [5] has as its system Plasmodium falciparum. Description: Antimalarial activity against chloroquine and pyrimethamine-resistant mefloquine-sensitive Plasmodium falciparum W2 by SYBR green I staining-based fluorescence assay. The assay is classed as functional, organism-based.
The test system of assay [6] is Plasmodium falciparum. Kind of assay: Resistance index, ratio of EC50 for chloroquine and pyrimethamine-resistant mefloquine-sensitive Plasmodium falciparum W2 to EC50 for chloroquine-sensitive Plasmodium falciparum D6. The assay is classed as functional.

Usually EC50 stands for the concentration at which the effect is half-maximal. High values mean a need for much substance, low ones an effect from little substance. The Ki is a dissociation constant, usually derived from enzyme kinetics or from competition with a known ligand.

Sequence of Plasmepsin II (P46925 whole entry): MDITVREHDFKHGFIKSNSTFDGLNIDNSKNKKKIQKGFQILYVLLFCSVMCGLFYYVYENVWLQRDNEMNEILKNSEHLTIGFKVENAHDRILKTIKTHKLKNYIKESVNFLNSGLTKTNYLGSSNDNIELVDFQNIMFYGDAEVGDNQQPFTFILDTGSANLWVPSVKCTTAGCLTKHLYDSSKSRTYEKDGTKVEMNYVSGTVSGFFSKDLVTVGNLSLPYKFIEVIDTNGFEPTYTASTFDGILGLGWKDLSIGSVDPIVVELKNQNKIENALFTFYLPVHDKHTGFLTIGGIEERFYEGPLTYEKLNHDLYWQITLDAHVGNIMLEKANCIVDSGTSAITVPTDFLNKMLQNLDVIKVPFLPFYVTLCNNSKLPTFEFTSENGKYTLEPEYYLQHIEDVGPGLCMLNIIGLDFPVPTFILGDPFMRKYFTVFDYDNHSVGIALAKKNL

On to `CNCCN(C)c1cc(C)c(OCC(=O)N[C@@H](Cc2ccccc2)[C@H](O)C(=O)N2CSC(C)(C)[C@H]2C(=O)N[C@H]2c3ccccc3C[C@H]2O)c(C)c1`, for which the “Ratio EC50” value in assay [1] was 4.5. In assay [2], the response was half-maximal at 860 nM (EC50).
The like results for `CCNCCNc1cc(C)c(OCC(=O)N[C@@H](Cc2ccccc2)[C@H](O)C(=O)N2CSC(C)(C)[C@H]2C(=O)N[C@H]2c3ccccc3C[C@H]2O)c(C)c1` were, in that order, 8.6 and 1900 nM.
In the case of `Cc1cc(NCCCl)cc(C)c1OCC(=O)N[C@@H](Cc1ccccc1)[C@H](O)C(=O)N1CSC(C)(C)[C@H]1C(=O)N[C@H]1c2ccccc2C[C@H]1O`, in assay [1], the “Ratio EC50” value is “<=2”. Also, the Ki in assay [3] stood at 5.5 nM.
For `COC(CNc1cc(C)c(OCC(=O)N[C@@H](Cc2ccccc2)[C@H](O)C(=O)N2CSC(C)(C)[C@H]2C(=O)N[C@H]2c3ccccc3C[C@H]2O)c(C)c1)OC`, the “Ratio EC50” value in assay [1] was “<=2”. This compound also gave an EC50 in assay [4] of 850 nM. This compound returned a Ki in assay [3] of 11 nM.
The like results for `CCOP(=O)(CCNc1cc(C)c(OCC(=O)N[C@@H](Cc2ccccc2)[C@H](O)C(=O)N2CSC(C)(C)[C@H]2C(=O)N[C@H]2c3ccccc3C[C@H]2O)c(C)c1)OCC` were, in that order, “<=2”, 600 nM and 22 nM.
As for `Cc1cccc(CNc2cc(C)c(OCC(=O)N[C@@H](Cc3ccccc3)[C@H](O)C(=O)N3CSC(C)(C)[C@H]3C(=O)N[C@H]3c4ccccc4C[C@H]3O)c(C)c2)n1`, the “Ratio EC50” value in assay [1] is on record as “<=2”. In assay [3], this compound registered a Ki of 4.4 nM.
The like results for `Cc1cc(NCc2c[nH]cn2)cc(C)c1OCC(=O)N[C@@H](Cc1ccccc1)[C@H](O)C(=O)N1CSC(C)(C)[C@H]1C(=O)N[C@H]1c2ccccc2C[C@H]1O` were, in that order, “<=2” and 4.8 nM.
As to `Cc1cc(NCc2ccnc3ccccc23)cc(C)c1OCC(=O)N[C@@H](Cc1ccccc1)[C@H](O)C(=O)N1CSC(C)(C)[C@H]1C(=O)N[C@H]1c2ccccc2C[C@H]1O`, the “Ratio EC50” value in assay [1] is on record as “<=2”. A half-maximal response in assay [4] (EC50) required 500 nM. Besides, the affinity in assay [3], expressed as Ki, was 1.7 nM.
`Cc1cc(NC(=O)CN)cc(C)c1OCC(=O)N[C@@H](Cc1ccccc1)[C@H](O)C(=O)N1CSC(C)(C)[C@H]1C(=O)N[C@H]1c2ccccc2C[C@H]1O` yielded a Ki in assay [3] of 1.2 nM.
Regarding `Cc1cc(NC(=O)CCN)cc(C)c1OCC(=O)N[C@@H](Cc1ccccc1)[C@H](O)C(=O)N1CSC(C)(C)[C@H]1C(=O)N[C@H]1c2ccccc2C[C@H]1O`, the “Ratio EC50” value in assay [1] was found to be 2.8. Moreover, the EC50 in assay [4] came to 260 nM; in assay [2], 730 nM. Moreover, the Ki in assay [3] was 2.3 nM.
The like results for `Cc1cc(NC(=O)CCCN)cc(C)c1OCC(=O)N[C@@H](Cc1ccccc1)[C@H](O)C(=O)N1CSC(C)(C)[C@H]1C(=O)N[C@H]1c2ccccc2C[C@H]1O` were, in that order, 0.41, 3200 nM, 1300 nM and 1.1 nM.
The matching figures for `Cc1cc(NC(=O)CCCCN)cc(C)c1OCC(=O)N[C@@H](Cc1ccccc1)[C@H](O)C(=O)N1CSC(C)(C)[C@H]1C(=O)N[C@H]1c2ccccc2C[C@H]1O`: 0.34, 1800 nM, 620 nM and 1 nM.
For the compound `Cc1cc(NC(=O)CCCCCN)cc(C)c1OCC(=O)N[C@@H](Cc1ccccc1)[C@H](O)C(=O)N1CSC(C)(C)[C@H]1C(=O)N[C@H]1c2ccccc2C[C@H]1O`, in assay [1], the “Ratio EC50” value is reported as 0.28. For the same compound, the EC50 is 2600 nM in assay [4] and 720 nM in assay [2]. Further, the Ki in assay [3] worked out at 5.7 nM.
`Cc1cc(NC(=O)CN2CCOCC2)cc(C)c1OCC(=O)N[C@@H](Cc1ccccc1)[C@H](O)C(=O)N1CSC(C)(C)[C@H]1C(=O)N[C@H]1c2ccccc2C[C@H]1O`: in assay [3], the Ki came out at 4.3 nM.
`Cc1cc(NCc2ccccn2)cc(C)c1OCC(=O)N[C@@H](Cc1ccccc1)[C@H](O)C(=O)N1CSC(C)(C)[C@H]1C(=O)N[C@H]1c2ccccc2C[C@H]1O`: the response in assay [5] was half-maximal at 730 nM (EC50). Further, the “Ratio EC50” value in assay [6] is on record as 1.3.
